From PMC7468670, “Biophysical Insight into the Interaction of Human Lysozyme with Anticancer Drug Anastrozole: A Multitechnique Approach” (The Scientific World Journal, 2020)

Molecular target: T1, Human lysozyme (HL) (Homo sapiens, UniProt P61626)
T1 construct: gene LYZ; commercial human lysozyme (Sigma-Aldrich), dialysed; single polypeptide, no subunits; 1REX used for docking only
T1 sequence (P61626 19-148): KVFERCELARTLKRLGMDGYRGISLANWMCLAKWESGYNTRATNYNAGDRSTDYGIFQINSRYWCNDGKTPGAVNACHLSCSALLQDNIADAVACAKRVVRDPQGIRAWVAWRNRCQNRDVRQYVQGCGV
Test: intrinsic fluorescence quenching, modified Stern-Volmer
Format: binding
Settings: 20 mM sodium phosphate pH 7.4, 310 K, 5 uM HL, excitation 280 nm; n = 1.00; double-log
Excerpt: intrinsic fluorescence quenching, modified Stern-Volmer on Human lysozyme (HL)

CC(C)(C#N)c1cc(Cn2cncn2)cc(C(C)(C)C#N)c1 [anastrozole]
Kb: 9660 M⁻¹
